Results from US20240173435A1, “GENE DELIVERY FOR PREVENTION AND TREATMENT OF BALDNESS” (NEW JERSEY INSTITUTE OF TECHNOLOGY, priority 2022, published 2024).

How the values were obtained:
[1] = test system: Androgen Receptor gene; experiment: Knockout percentage by Sanger sequencing and ICE analysis of GFP-positive sorted cells; format: cell-based, human; conditions: GFP-positive sorted HEK 293T cells, ICE analysis, n=5
Description: Cas9 mRNA was purchased from Tri-Link Biotechnologies. Guide RNAs, which target the 1st coding exon in both human and mouse AR genes, were designed so that any frameshift mutation would result in early termination of translation. All gRNAs were obtained from Synthego with “end-modified” synthesis where the first and last three bases of these gRNA were synthesized using 2′-O-Methyl-nucleosides and joined via 3′ phosphorothioate bonds.
The in vitro transfection efficacy was evaluated in the HEK 293 cell line by delivering plasmid PX458 integrated with GFP, Cas9 and gRNA sequence, utilizing nanoparticles. Briefly, 1×10^5 HEK 293 cells were seeded into each well of 24-well plate with 0.5 mL complete culture medium and incubated at 37° C. overnight to allow cell attachment. Then the LNPs were seeded at 24 h. The transfected GFP positive cells were observed under All-in-One Fluorescence Microscope (BZ-X710, Keyence, Japan) at predetermined time points with brightfield, fluorescent and merged channels using 10×PanFluor lens (Nikon, Japan). […] The cell pellets were resuspended in 0.5 mL PBS for flow cytometric analysis using a BD LSR II flow cytometer (BD Biosciences, San Jose, CA) and the data were analyzed using FACSDiva software (BD Biosciences, San Jose, CA). […]

[2] = Ionizable cationic lipid library screening, in vitro delivery of luciferase mRNA (mLuc); format: cell-based; conditions: 18*8 library, lipid:DOPE:cholesterol:DMG-PEG 50:10:38.5:1.5
Excerpt: An ionizable cationic lipid is generally composed of three parts: (1) hydrophilic headgroups containing one or multiple ionizable amines for condensing negatively charged mRNA; (2) hydrophobic hydrocarbon chains capable of promoting self-assembly and phospholipid membrane fusion; (3) degradable ester linkers connecting the headgroups with hydrocarbon chains to potentially lower systemic cytotoxicity (FIG. 8b). A new library of ionizable cationic lipids is designed, where the ionizable amine headgroups originated from different amino alcohols and the hydrocarbon lipid chains were derived from commercially available lipid acids. Through CALB enzyme-assisted reaction, the hydroxyl groups were reacted with carboxylic acids via one-step high-efficiency esterification (FIG. 8a) and an 18*8 library of lipid-like materials was synthesized by varying amino alcohols and lipid acids (ACS Nano, 16 (11) 18936-18950). Preliminarily, these lipid-like materials with DOPE, cholesterol, and DMG-PEG were fabricated at a molar ratio of 50:10:38.5:1.5, which was the most widely used formulation to form LNPs and delivered luciferase encoded mRNA (mLuc) in vitro to generate a luciferase expression heat map of lipid-like materials.

Row | Compound | knockout (percentage of transfected cells showing insertion or deletion) [1] | luciferase expression rank in lipid library screen [2]
1 | TGATCCAGAACCCGGGCCCC (guide UGAUCCAGAACCCGGGCCCC; listed as RNA, chemistry not fully specified) [sgRNA1, PAM AGG, strand +] | ~76% | 
2 | GAGCGTGCGCGAAGCGATCC (guide GAGCGUGCGCGAAGCGAUCC; listed as RNA, chemistry not fully specified) [sgRNA2, PAM AGG, strand +] | ~51% | 
3 | CCCCC/C=C/C/C=C/CCCCCCCC(=O)OCCN1CCN(CCOC(=O)CCCCCCC/C=C/C/C=C/CCCCC)CC1 [AA3-DLin] |  | top-performing
